Test results published in PubChem BioAssay AID2060494 (Molecular Pharmacology Branch, DTP, NCI, 2025).

Test system: 435261-313-R-J1-PDC complex spheroid viability
Experiment: Anticancer human tumor 435261-313-R-J1-PDC patient-derived colon adenocarcinoma cell line growth inhibition [GQUAD]
Conditions: for IC50: curve of first compound; for viability, T/C: stronger effect = lower value
Procedure, shortened: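 Multi-cell-type spheroids of tumor cells with HUVEC and mesenchymal stem cells, treated with drug combinations. Concentrations descend in half-log steps from near clinical Cmax, or from 10 microM where Cmax is unknown; viability read-out.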

[1] = second compound 0.0316 µM, first compound 0.0316 µM
[2] = second compound 0.0316 µM, first compound 0.1 µM
[3] = second compound 0.0316 µM, first compound 0.316 µM
[4] = second compound 0.0316 µM, first compound 1 µM
[5] = second compound 0.0316 µM, first compound 3.16 µM
[6] = second compound 0.0316 µM, first compound 10 µM
[7] = second compound 0.1 µM, first compound 0.0316 µM
[8] = second compound 0.1 µM, first compound 0.1 µM
[9] = second compound 0.1 µM, first compound 0.316 µM
[10] = second compound 0.1 µM, first compound 1 µM
[11] = second compound 0.1 µM, first compound 3.16 µM
[12] = second compound 0.1 µM, first compound 10 µM
[13] = second compound 0.316 µM, first compound 0.0316 µM
[14] = second compound 0.316 µM, first compound 0.1 µM
[15] = second compound 0.316 µM, first compound 0.316 µM
[16] = second compound 0.316 µM, first compound 1 µM
[17] = second compound 0.316 µM, first compound 3.16 µM
[18] = second compound 0.316 µM, first compound 10 µM
[19] = second compound 1 µM, first compound 0.0316 µM
[20] = second compound 1 µM, first compound 0.1 µM
[21] = second compound 1 µM, first compound 0.316 µM
[22] = second compound 1 µM, first compound 1 µM
[23] = second compound 1 µM, first compound 3.16 µM
[24] = second compound 1 µM, first compound 10 µM
[25] = second compound 3.16 µM, first compound 0.0316 µM
[26] = second compound 3.16 µM, first compound 0.1 µM
[27] = second compound 3.16 µM, first compound 0.316 µM
[28] = second compound 3.16 µM, first compound 1 µM
[29] = second compound 3.16 µM, first compound 3.16 µM
[30] = second compound 3.16 µM, first compound 10 µM
[31] = second compound 10 µM, first compound 0.0316 µM
[32] = second compound 10 µM, first compound 0.1 µM
[33] = second compound 10 µM, first compound 0.316 µM
[34] = second compound 10 µM, first compound 1 µM
[35] = second compound 10 µM, first compound 3.16 µM
[36] = second compound 10 µM, first compound 10 µM
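Note: spheroids exposed to the agents for seven days before readout.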
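Throughout, for viability, T/C: percent of vehicle control viability with DMSO wells as 100%.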

Structure (SMILES): C#Cc1c(F)ccc2cc(O)cc(-c3ncc4c(N5CC6CCC(C5)N6)nc(OCC56CCCN5CC(F)C6)nc4c3F)c12 (centres undefined) + Cc1[nH]c2ccc(F)cc2c1-c1nc2c3cccnc3c3ncccc3c2[nH]1
- IC50 (second compound 0.0316 µM): > 10 µM
- IC50 (second compound 0.1 µM): > 10 µM
- IC50 (second compound 0.316 µM): > 10 µM
- IC50 (second compound 1 µM): > 10 µM
- IC50 (second compound 3.16 µM): < 0.0316 µM
- IC50 (second compound 10 µM): < 0.0316 µM
- viability, T/C [1]: 94.8%
- viability, T/C [2]: 106%
- viability, T/C [3]: 88.9%
- viability, T/C [4]: 104%
- viability, T/C [5]: 65.6%
- viability, T/C [6]: 58.9%
- viability, T/C [7]: 107%
- viability, T/C [8]: 85.4%
- viability, T/C [9]: 104%
- viability, T/C [10]: 62%
- viability, T/C [11]: 61.1%
- viability, T/C [12]: 57%
- viability, T/C [13]: 64.5%
- viability, T/C [14]: 111%
- viability, T/C [15]: 75.8%
- viability, T/C [16]: 75.4%
- viability, T/C [17]: 84.7%
- viability, T/C [18]: 74.4%
- viability, T/C [19]: 61.8%
- viability, T/C [20]: 55.1%
- viability, T/C [21]: 85.6%
- viability, T/C [22]: 66.9%
- viability, T/C [23]: 63.5%
- viability, T/C [24]: 46.3%
- viability, T/C [25]: 51.2%
- viability, T/C [26]: 42.9%
- viability, T/C [27]: 39.6%
- viability, T/C [28]: 28.4%
- viability, T/C [29]: 45%
- viability, T/C [30]: 0.2%
- viability, T/C [31]: 24.2%
- viability, T/C [32]: 28.3%
- viability, T/C [33]: 28.4%
- viability, T/C [34]: 37.1%
- viability, T/C [35]: 29%
- viability, T/C [36]: 0.26%

Structure (SMILES): O=c1[nH]cc(F)c(=O)[nH]1 + CN(C)c1ccc(Nc2c3ccc(NC(=O)CCN4CCCC4)cc3nc3cc(NC(=O)CCN4CCCC4)ccc23)cc1
- IC50 (second compound 0.0316 µM): > 10 µM
- IC50 (second compound 0.1 µM): > 10 µM
- IC50 (second compound 0.316 µM): > 10 µM
- IC50 (second compound 1 µM): > 10 µM
- IC50 (second compound 3.16 µM): > 10 µM
- IC50 (second compound 10 µM): < 0.0316 µM
- viability, T/C [1]: 118%
- viability, T/C [2]: 102%
- viability, T/C [3]: 105%
- viability, T/C [4]: 90.8%
- viability, T/C [5]: 71.6%
- viability, T/C [6]: 99.9%
- viability, T/C [7]: 117%
- viability, T/C [8]: 114%
- viability, T/C [9]: 126%
- viability, T/C [10]: 86.8%
- viability, T/C [11]: 86.9%
- viability, T/C [12]: 78.6%
- viability, T/C [13]: 104%
- viability, T/C [14]: 103%
- viability, T/C [15]: 87.4%
- viability, T/C [16]: 97.2%
- viability, T/C [17]: 111%
- viability, T/C [18]: 85.8%
- viability, T/C [19]: 118%
- viability, T/C [20]: 91.8%
- viability, T/C [21]: 98.5%
- viability, T/C [22]: 104%
- viability, T/C [23]: 81.8%
- viability, T/C [24]: 73.5%
- viability, T/C [25]: 73.3%
- viability, T/C [26]: 78.1%
- viability, T/C [27]: 73.4%
- viability, T/C [28]: 63.3%
- viability, T/C [29]: 70.2%
- viability, T/C [30]: 60.4%
- viability, T/C [31]: 29.4%
- viability, T/C [32]: 66%
- viability, T/C [33]: 41.8%
- viability, T/C [34]: 40%
- viability, T/C [35]: 43.3%
- viability, T/C [36]: 31.4%
